# Results taken from patent publication US10039806B2, “Methods and compositions for treating antiprogestin-resistant cancers” (Fundación Sales, priority 2011, dated 2018).
# Key:
# [1] = tested on: C4-HI or C4-HIR epithelial cells with carcinoma-associated fibroblasts; experiment: (3H)-thymidine uptake, co-cultures with carcinoma-associated fibroblasts; assay type: cell-based, mouse; conditions: own or other tumor's fibroblasts
# Protocol: Trypsinized cells were resuspended and equal amounts of epithelial cells and carcinoma-associated fibroblasts were seeded with 10% FCS that was replaced after attachment by 1% steroid-stripped FCS. […] The same amount of epithelial cells or carcinoma-associated fibroblasts or double the amount of purified cells was used for comparison.
# (3H)-thymidine-uptake was used as an indirect method to evaluate cell proliferation. In brief, cells were seeded into 96-well microplates. After attachment (24 h), the cells were incubated for 24 h with 1% steroid-stripped FCS and then for 48 h with the experimental solutions to be tested in 1% chFCS. Fifty percent of the medium was replaced with fresh medium every 24 h. The cells were incubated with 0.4 μCi of 3H-thymidine (specific activity: 20 Ci/mmol) for 24 h, trypsinized, and harvested in a cell harvester. In experiments in which 5azadC was used, the experiments were carried out using proliferating cells (presence of 10% FCS) to guarantee the effect of the demethylating agent. Three different experiments were made using octuplicates, and the means and standard deviations of one representative experiment of the other three are shown. The results are expressed as the proliferation index (cpm […] experimental group/cpm control; mean±SEM).
# IBH-6-pSG5 tumors = experiment: Xenograft in nude mice; assay type: in vivo, human; conditions: MFP 10 mg/kg/day; p<0.001
# From the text: (§1) BH-6 cell line was developed from an invasive ductal breast carcinoma (1). IBH-6 cells express basal levels of hormone receptors, they are tumorigenic and in vivo express higher levels of PRB than PRA (2). Cells were transfected with human PRB, PRA (pSG5-PRB, pSG5-PRA, kindly provided by K. Horwitz) or with the empty vector (pSG5), together with a plasmid encoding the neomycin resistance gene pIRES-N1(3), using Lipofectamine transfection reagent (Invitrogen) following the manufacturer's instructions. Transfected and selected cells were cultured in medium supplemented with […] G418 (neomycin analogue, GIBCO). The expression of PRB and PRA were analyzed by western blot and immunofluorescence (using Ab7 and Ab6 antibodies from Thermo Fisher). T47D-YA or YB were kindly provided by K. Horwitz and cultured as previously described (4).
# Transfected and selected cells were grown up to confluence, washed with PBS, detached with 0.25% trypsin, centrifuged at 1000 rpm for 10 min and resuspended in a final concentration of 10^6 (IBH-6) or 5×10^6 (T47D) cells per 100 μl of culture medium. The cells were sc inoculated into the right flank of nu/nu (IBH-6) or NOD/LtSz-scid/IL-2Rgamma null (T47D-YA or -YB cells) female mice. […]
# T47D-YA tumors = experiment: Xenograft in NOD/LtSz-scid/IL-2Rgamma null mice; assay type: in vivo, human
# From the text: as §1
# (§2) Transfected and selected cells were grown up to confluence, washed with PBS, detached with 0.25% trypsin, centrifuged at 1000 rpm for 10 min and resuspended in a final concentration of 10^6 (IBH-6) or 5×10^6 (T47D) cells per 100 μl of culture medium. The cells were sc inoculated into the right flank of nu/nu (IBH-6) or NOD/LtSz-scid/IL-2Rgamma null (T47D-YA or -YB cells) female mice. Only in experiments involving T47D cells E2 silastic pellets (0.5 mg) were implanted sc into the back of the animals one week prior tumor cell inoculation and 70 μl of Matrigel were mixed with the cell suspension at the moment of injection. MFP (6 mg) silastic pellets were sc implanted when tumors reached 20-40 mm^2. For T47D cells, experiments were repeated inoculating both cell types (T47D-YA or -YB) simultaneously in the left or right flank of the mouse, respectively.
# (§3) Sections of formalin-fixed, paraffin-embedded tissue were stained with PR (C-19), or Ki67 (Dako, M7248) antibodies using the avidin-biotin-peroxidase complex technique (Vectastain Elite ABC kit; Vector), as described previously (6). Positive cells were counted in 10 high-power fields (HPFs) of each section, using 1000× magnification, and expressed as the mean±SEM of the ratio between the number of positive events and the total cell number.
# T47D-YB tumors = experiment: Xenograft in NOD/LtSz-scid/IL-2Rgamma null mice; assay type: in vivo, human
# From the text: as §1, §2, §3
# 59-2-HI tumor = experiment: MPA breast cancer model, responsive tumor in vivo; conditions: mouse
# C4-HI = conditions: concentrations lower than growth inhibitory ones; cited from earlier work
# [2] = tested on: primary cultures of responsive tumors; conditions: cited from earlier work
# MCF-7 cells = conditions: cited from earlier work
# MCF-7 xenografts = conditions: MIF 50 mg/kg/day, ONA 30 mg/kg/day, 17 days; cited from earlier work
# PR = biological target: T1, PR (Homo sapiens, UniProt P06401); conditions: T47D cells transfected with MMTV-CAT; cited from earlier work
# T1 sequence (P06401 1-933): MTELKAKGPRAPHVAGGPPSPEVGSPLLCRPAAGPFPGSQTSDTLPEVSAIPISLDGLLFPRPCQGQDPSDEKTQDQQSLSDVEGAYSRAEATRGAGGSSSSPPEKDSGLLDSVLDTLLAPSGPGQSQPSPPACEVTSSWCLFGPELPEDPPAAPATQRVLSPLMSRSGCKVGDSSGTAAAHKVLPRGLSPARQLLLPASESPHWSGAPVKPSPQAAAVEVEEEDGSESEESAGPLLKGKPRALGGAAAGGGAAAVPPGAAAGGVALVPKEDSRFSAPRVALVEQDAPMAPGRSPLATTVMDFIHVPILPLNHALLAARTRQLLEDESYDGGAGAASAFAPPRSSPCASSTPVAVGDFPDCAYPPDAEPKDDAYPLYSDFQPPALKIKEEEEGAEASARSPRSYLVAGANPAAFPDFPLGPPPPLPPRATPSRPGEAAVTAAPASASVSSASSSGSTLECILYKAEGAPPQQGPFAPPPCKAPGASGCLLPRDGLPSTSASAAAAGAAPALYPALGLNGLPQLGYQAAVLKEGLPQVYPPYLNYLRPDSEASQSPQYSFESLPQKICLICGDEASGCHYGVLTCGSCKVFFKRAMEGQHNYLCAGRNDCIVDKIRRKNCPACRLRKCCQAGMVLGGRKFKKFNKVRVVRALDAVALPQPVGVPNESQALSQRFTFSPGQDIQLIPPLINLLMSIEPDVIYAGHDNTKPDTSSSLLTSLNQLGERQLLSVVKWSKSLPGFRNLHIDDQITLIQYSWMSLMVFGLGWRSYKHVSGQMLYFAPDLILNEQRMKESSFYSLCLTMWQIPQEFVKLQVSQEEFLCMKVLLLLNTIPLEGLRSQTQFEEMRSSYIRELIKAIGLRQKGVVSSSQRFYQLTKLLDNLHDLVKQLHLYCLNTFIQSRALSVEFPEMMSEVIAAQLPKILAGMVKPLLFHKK
smiles,measurement,setting,value
"CC#C[C@]1(O)CC[C@H]2[C@@H]3CCC4=CC(=O)CCC4=C3[C@@H](c3ccc(N(C)C)cc3)C[C@@]21C [RU-486, mifepristone]",co-culture cell proliferation,[1],inhibited
same,in vivo growth,IBH-6-pSG5 tumors,stimulated
same,tumor size,"T47D-YA tumors; MFP pellet, E2 pellet 0.5 mg, p<0.05",reduced their size
same,mitotic figures and apoptosis,T47D-YA tumors; in vivo,Few mitotic figures and a high degree of apoptosis
same,nuclear MYC or CCND1 expression (IHC),T47D-YA tumors; in vivo,decreased levels of nuclear MYC or CCND1 expression
same,tumor morphology,T47D-YA tumors; in vivo,morphological signs of tumor regression
same,tumor size,"T47D-YB tumors; MFP pellet, E2 pellet 0.5 mg",no significant differences
same,nuclear MYC or CCND1 staining (IHC),T47D-YB tumors; in vivo,intense nuclear staining
same,tumor regression (histology),59-2-HI tumor,the tumor regresses
same,tumor growth at low doses,C4-HI,stimulated C4-HI growth
same,MPA-induced or FGF2-induced cell proliferation,[2]; 1-100 nM,inhibited MPA-induced or FGF2-induced cell proliferation
same,cell proliferation at very low concentrations,[2]; 10-12 M,stimulate cell proliferation
same,E2-induced cell proliferation,"MCF-7 cells; 10 nM, 10% steroid-deficient human serum",inhibited E2-induced cell proliferation
same,PR-mediated cell proliferation,MCF-7 cells,inhibited PR-mediated cell proliferation
same,progesterone-induced cell proliferation,MCF-7 cells; nanomolar concentrations,inhibit progesterone-induced cell proliferation
same,E2-induced proliferation of xenografts,MCF-7 xenografts,inhibited
same,effect in cells treated with analogs of cyclic AMP,PR,exerts an agonistic effect
